Measurements: US9090652B2, “Bile acid derivatives as FXR ligands for the prevention or treatment of FXR-mediated diseases or conditions” (Intercept Pharmaceuticals, Inc., priority 2006, dated 2015)
Converted amounts (≈) assume the structure as drawn. “Also recorded” adds a separate entry of the source. Structures can show the parent of a compound that is named as a salt. Where two headings read alike, the source gives them in different places. Marks after values point to notes of the source that are not given here.

Legend:
[1] = values from literature, cited from earlier work; for CMC NaCl 0.15M: in NaCl 0.15 M; for CMC H2O: in water
[2] = 1-Octanol/water partition coefficient, shake-flask; settings: pH 8, 0.1 mM bile salt
[3] = biological target: T1, bovine serum albumin (Bos taurus, UniProt P02769); assay: Albumin binding by equilibrium dialysis; assay type: in vitro ADME; settings: 100 μM BA in 5% bovine serum albumin-saline, 25° C.
T1 construct: 5% bovine serum albumin-saline solution

[4] = value from literature; cited from earlier work
[5] = biological target: T2, FXR (Homo sapiens, UniProt Q96RI1); assay: Luciferase transactivation assay in transfected HepG2 cells; assay type: cell-based; settings: ammonium salt
T2 construct: expressed in transfected cells; host or cells: HepG2
T2 sequence (Q96RI1 1-486): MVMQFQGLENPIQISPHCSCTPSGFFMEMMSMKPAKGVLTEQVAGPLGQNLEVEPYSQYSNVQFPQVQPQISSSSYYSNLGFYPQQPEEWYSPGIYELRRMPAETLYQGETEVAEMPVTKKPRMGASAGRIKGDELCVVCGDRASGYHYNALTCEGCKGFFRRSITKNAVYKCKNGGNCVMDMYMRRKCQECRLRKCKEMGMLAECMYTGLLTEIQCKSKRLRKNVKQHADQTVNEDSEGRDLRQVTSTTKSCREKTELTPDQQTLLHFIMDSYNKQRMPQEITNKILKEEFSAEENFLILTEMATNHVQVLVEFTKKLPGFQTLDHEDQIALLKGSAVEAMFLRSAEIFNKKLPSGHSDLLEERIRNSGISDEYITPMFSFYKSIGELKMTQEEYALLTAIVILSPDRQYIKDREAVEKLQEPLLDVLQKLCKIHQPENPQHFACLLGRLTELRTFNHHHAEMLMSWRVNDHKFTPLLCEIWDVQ
T2 sequence (P19793 1-462 partner): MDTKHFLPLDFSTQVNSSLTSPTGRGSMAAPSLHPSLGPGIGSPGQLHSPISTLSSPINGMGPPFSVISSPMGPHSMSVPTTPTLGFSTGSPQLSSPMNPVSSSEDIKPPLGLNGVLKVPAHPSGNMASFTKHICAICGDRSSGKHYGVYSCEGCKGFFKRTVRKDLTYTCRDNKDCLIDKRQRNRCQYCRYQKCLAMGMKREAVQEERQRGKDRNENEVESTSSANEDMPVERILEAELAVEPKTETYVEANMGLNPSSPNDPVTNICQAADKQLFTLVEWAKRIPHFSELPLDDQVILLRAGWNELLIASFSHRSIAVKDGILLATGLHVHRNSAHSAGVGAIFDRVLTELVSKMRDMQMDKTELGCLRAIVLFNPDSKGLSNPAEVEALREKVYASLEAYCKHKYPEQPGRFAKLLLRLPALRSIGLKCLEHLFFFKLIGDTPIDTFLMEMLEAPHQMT

[6] = tested on: FXR related genes in liver; assay: FXR target gene expression in liver of intact mice (Real-Time PCR); assay type: in vivo, Balb/c mice; settings: 4 days
[7] = tested on: ANIT-induced cholestasis; assay: ANIT-induced cholestasis in rat; assay type: in vivo, Wistar rats; settings: ANIT treated rats, ammonium salt
Description: Wistar Rats studies were approved by the Animal Study Committee of the University of Perugia. Male Wistar rats (200-250 g) were obtained from Charles River Breeding Laboratories (Portage, Mich.) and maintained on standard laboratory rat chow on a 12-h light/dark cycle. […] Control rats (N=4) were administered vehicle (physiologic solution I.P.). At the end of the study, rats were sacrificed under anaesthesia with sodium pentobarbital (50 mg/kg i.p.) and terminally bled via cardiac puncture; the liver was removed and weighted for examination and blood samples were taken. Rat genes expression was evaluated by quantitative real-time polymerase chain reaction (RT-PCR) as previously described herein.

[8] = Critical micellar concentration by surface tension (maximum bubble-pressure); assay type: physicochemical; settings: for CMC NaCl 0.15M: in NaCl 0.15 M; for CMC H2O: in water
Description: This value was determined by surface tension measurements using a maximum bubble-pressure method. The tensiometer was a Sensadyne 6000 (Chem-Dyne Research Corp., Milwaukee, Wis.) equipped with two glass probes of 0.5 and 4.0 mm diameters connected to a source of nitrogen. The bubble frequency was 1 bubble/second in distilled water at 26° C. (P=2.7 atm) and the calibration was made with double-distilled water and methanol. The surface tension of BA sodium salts solutions both in water and in NaCl 0.15 M was measured at various concentrations range, 0.2-75 mM and 0.3-100 mM respectively. The surface tension values were plotted against the logarithm of the bile salt concentration; the regression lines corresponding to the two parts of the curve (monomeric and micellar phases) were calculated using the method of least squares, and the intersection of the lines was taken as the CMC value.

[9] = Critical micellar pH; assay type: physicochemical; settings: CMpH=pKa+log CMC/WS
Text: This value can be experimentally determined by evaluating the pH at which a given BA starts to precipitate from a micellar solution. It can be calculated from the CMC Water solubility of the protonated species and pKa using the formula: CMpH=pKa+log CMC/WS.

[10] = pH 1
[11] = pH 8
[12] = tested on: Intestinal bacteria (human stools cultures); assay: Metabolic stability in human stools culture (7α-dehydroxylation); assay type: in vitro ADME
[13] = Hepatic metabolism and biliary secretion in bile fistula rat after iv infusion; assay type: in vivo; settings: for Main form / hepatic metabolite secreted in bile: at the administered dose
Description: The BA were administered by infusion to bile fistula rat and bile collected at 15 min intervals for 7 hours. The bile flow was measured and bile analyzed using HPLC-ES-MS-MS for the identification of the rate of biliary secretion and to evaluate the major hepatic metabolites.
Bile acids and their metabolites were determined by a liquid chromatography-tandem mass spectrometry (HPLC-MS/MS) method using electrospray (ESI) source in negative ionization mode. Rat bile samples were brought to room temperature and diluted 1:100 v/v-1:1000 v/v with 15 mM ammonium acetate buffer (pH=5). Then, 10 μL were injected into the chromatographic column. Liquid chromatography was performed using a Waters Alliance 2695 separation module coupled with autosampler. Bile acids were analyzed using a Synergi Hydro-RP C18 column (150×2.0 mm i.d., 4 μm particle size), protected by a SecurityGuard ODS 4×2.0 mm i.d. precolumn, both supplied from Phenomenex. Bile acids were separated in elution gradient using 15 mM ammonium acetate buffer (pH=5.00) as mobile phase A and acetonitrile as mobile phase B. Mobile phase B was increased from 30% to 64% in 12 min, then to 70% in 8 min, and finally brought to 100% in 10 min and held constant for 1 min. […] The column effluent was analysed by ESI-MS/MS using a Quattro-LC (Micromass) triple quadruple mass spectrometer operating in Multiple Reaction Monitoring (MRM) acquisition mode. MassLynx software version 4.0 was used for data acquisition and processing.

[14] = tested on: ANIT-induced cholestasis; settings: previous unpublished studies by Fiorucci et al.; cited from earlier work
[15] = Water solubility of protonated bile acids; settings: 0.1 M HCl, pH 1, simulated gastric fluid, thermodynamic from solid
[16] = tested on: pancreatic esterases (pancreatin); assay: Metabolic stability in simulated duodenal/pancreatic fluid (USP); assay type: in vitro ADME, porcine
[17] = 5 mg/kg intraperitoneal, ammonium salt

T1 sequence (P02769 25-607): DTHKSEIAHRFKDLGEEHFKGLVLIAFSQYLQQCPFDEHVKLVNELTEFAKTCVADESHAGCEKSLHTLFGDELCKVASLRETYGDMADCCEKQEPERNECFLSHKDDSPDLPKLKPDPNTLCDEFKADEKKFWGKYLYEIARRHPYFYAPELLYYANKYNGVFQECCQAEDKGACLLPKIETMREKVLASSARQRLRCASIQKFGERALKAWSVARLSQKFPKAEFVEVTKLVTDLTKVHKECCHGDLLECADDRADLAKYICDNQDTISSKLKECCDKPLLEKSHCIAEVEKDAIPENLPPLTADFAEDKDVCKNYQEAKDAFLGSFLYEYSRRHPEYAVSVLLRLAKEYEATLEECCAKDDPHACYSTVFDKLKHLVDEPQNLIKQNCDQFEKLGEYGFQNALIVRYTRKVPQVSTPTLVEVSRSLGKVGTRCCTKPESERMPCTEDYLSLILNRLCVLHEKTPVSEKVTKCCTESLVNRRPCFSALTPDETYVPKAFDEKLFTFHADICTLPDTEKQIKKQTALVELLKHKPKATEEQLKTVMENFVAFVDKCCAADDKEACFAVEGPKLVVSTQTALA

Row | LogPA− (1-octanol-water partition coefficient, ionized species) [2] | % Binding (albumin) [3] | CMpH (critical micellar pH) [9] | SMILES | ST50: Surface Tension of 50 mM aqueous solution [8] | STCMC: Surface Tension at CMC in water [8] | CMC NaCl 0.15M [8] | CMC H2O [8] | also measured
1 | 0.9 |  |  | C[C@H](CCC(=O)NCCS(=O)(=O)O)[C@H]1CC[C@H]2[C@@H]3[C@H](O)C[C@@H]4C[C@H](O)CC[C@]4(C)[C@H]3CC[C@]12C [TCDCA] |  |  |  |  | CMC NaCl 0.15M [1]: 3.0* mM; CMC H2O [1]: 7.0* mM
2 |  | 67% |  | C[C@H](CCC(=O)NCCS(=O)(=O)O)[C@H]1CC[C@H]2[C@@H]3[C@@H](O)C[C@@H]4C[C@H](O)CC[C@]4(C)[C@H]3CC[C@]12C [TUDCA] |  |  |  |  | CMC NaCl 0.15M [1]: 2.2* mM; CMC H2O [1]: 8.0* mM; LogPA− (1-octanol-water partition coefficient, ionized species) [4]: 1.0*
3 |  |  |  | CC[C@H]1[C@@H](O)C2C3CCC(C(C)CCOS(=O)(=O)O)[C@@]3(C)CCC2[C@@]2(C)CC[C@@H](O)C[C@@H]12 (stereo partly drawn) [UPF-987, 3α,7α,23-trihydroxy-6α-ethyl-24-nor-5β-cholan-23-sulphate triethyl ammonium salt] |  |  |  |  | Transactivation of FXR [5]: transactivates FXR; Liver BSEP expression [6, 17]: potent induction; also recorded: induces liver; Liver SHP expression [6, 17]: potent induction; also recorded: induces liver; Downregulation of liver Cyp7a1 ([6]; 5 mg/kg): 60-70%; Liver FAS mRNA expression ([6]; 5 mg/kg, ammonium salt): reduced; inhibition at 5 mg/kg ([6]; Mus musculus, 96 h, read-out: Inhibition of liver SREBP-1c): 90%; Liver injury / cholestasis (plasma AST, γGT, alkaline phosphatase, cholesterol) ([7]; UPF-987 5 and 3 mg/kg daily): attenuates liver injury; also recorded: reduces ANIT; Liver expression of NTCP, CYP7A1 and BSEP [7]: modulates liver
4 | 2.2 | 93% | 7.6 | C[C@H](CCC(=O)O)[C@H]1CC[C@H]2[C@@H]3[C@H](O)C[C@@H]4C[C@H](O)CC[C@]4(C)[C@H]3CC[C@]12C [CDCA, chenodeoxycholic acid] | 48.5 Dyne/cm | 55.6 Dyne/cm | 3.0 mM | 7.5 mM | Half-life time ([12]; human stool cultures): one; Metabolism (7-dehydroxylation to lithocholic acid) ([12]; human stool cultures, after 8 hours of incubation): almost completely metabolized
5 | 2.5 | 96% | 7.6 | CC[C@H]1[C@@H](O)[C@@H]2[C@H](CC[C@]3(C)[C@@H]([C@H](C)CCC(=O)O)CC[C@@H]23)[C@@]2(C)CC[C@@H](O)C[C@@H]12 [INT-747, 3α,7α-dihydroxy-6α-ethyl-5β-cholan-24-oic acid] | 43.2 Dyne/cm | 48.8 Dyne/cm | 2.9 mM | 4.5 mM | Concentration at which a gel phase forms ([8]; in the presence of Na+ 0.15 M): > 60000 µM; CMpH (critical micellar pH) ([9]; listed as UPF 747): 7.7; Main form / hepatic metabolite secreted in bile [13]: taurine conjugate; Stability in human stool cultures [12]: very stable; Reduction of liver injury in ANIT model [14]: not effective; solubility at 1 week [15]: 9 µM (≈ 3.79 µg/mL)

Row | SMILES | LogPA− (1-octanol-water partition coefficient, ionized species) [2] | % Binding (albumin) [3] | CMpH (critical micellar pH) [9] | ST50: Surface Tension of 50 mM aqueous solution [8] | STCMC: Surface Tension at CMC in water [8] | CMC NaCl 0.15M [8] | CMC H2O [8] | also measured
6 | C[C@H](CCC(=O)O)[C@H]1CC[C@H]2[C@@H]3[C@@H](O)C[C@@H]4C[C@H](O)CC[C@]4(C)[C@H]3CC[C@]12C [UDCA] |  | 94% | 8.4 | 50.4 Dyne/cm | 63.0 Dyne/cm | 6.0 mM | 26 mM | Water Solubility [10]: 7.5 µM; LogPA− (1-octanol-water partition coefficient, ionized species) [11]: 2.2
7 | CC[C@H]1[C@@H](O)C2C3CCC(C(C)CCOS(=O)(=O)[O-])[C@@]3(C)CCC2[C@@]2(C)CC[C@@H](O)C[C@@H]12.[Na+] (stereo partly drawn) [INT-1103, 3α,7α,23-trihydroxy-6α-ethyl-24-nor-5β-cholan-23-sulphate sodium salt] | 2.0 | 85% |  | 43.3 Dyne/cm | 47.9 Dyne/cm | 1.3 mM | 3.9 mM | Main form / hepatic metabolite secreted in bile [13]: 3-glucoronide; Amount of administered dose secreted into bile ([13]; iv infusion 3 umol/Kg/min, bile collected 7 hours): 30-40%; Stability in human stool cultures [12]: very stable; Stability in simulated pancreatic fluid ([16]; 50 μM, 37° C., up to 240 min): very stable; Hydrolysis of ester bond (sulphate) by pancreatic esterases ([16]; simulated pancreatic fluid): not hydrolyzed
